Assay results taken from ChEMBL document CHEMBL4828737, “Glutathione-responsive prodrug conjugates for image-guided combination in cancer therapy” (Eur J Med Chem, 2021).
Calls of active or inactive are those of the source. No cut-off for these calls is given here.

What was measured:
[1] = GSH-mediated prodrug activation assessed as increase in fluorescence intensity at 10 uM measured up to 2 hrs by real time fluorescence spectra
[2] = GSH-mediated prodrug activation assessed as increase in fluorescence intensity at 10 uM measured at pH 5 by real time fluorescence spectra; conditions: pH 5, 10 µM
HepG2 [3] = assay: Antiproliferative activity against human HepG2 cells assessed as cell growth inhibition at 0.1 to 100 micromol/L measured after 24 hrs by MTT assay relative to control; assay type: functional, cell-based; conditions: dose 0.1-100 µmol/L
HepG2 [4] = assay: Antiproliferative activity against human HepG2 cells assessed as cell growth inhibition at 0.1 to 100 micromol/L measured after 48 hrs by MTT assay relative to control; assay type: functional, cell-based; conditions: dose 0.1-100 µmol/L
MCF7 [5] = assay: Antiproliferative activity against human MCF7 cells assessed as cell growth inhibition at 0.1 to 100 micromol/L measured after 24 hrs by MTT assay relative to control; assay type: functional, cell-based; conditions: dose 0.1-100 µmol/L
MCF7 [6] = assay: Antiproliferative activity against human MCF7 cells assessed as cell growth inhibition at 0.1 to 100 micromol/L measured after 48 hrs by MTT assay relative to control; assay type: functional, cell-based; conditions: dose 0.1-100 µmol/L
HEK-293T [7] = assay: Antiproliferative activity against human HEK293T cells assessed as cell growth inhibition at 0.1 to 100 micromol/L measured after 24 hrs by MTT assay relative to control; assay type: functional, cell-based; conditions: dose 0.1-100 µmol/L
HEK-293T [8] = assay: Antiproliferative activity against human HEK293T cells assessed as cell growth inhibition at 0.1 to 100 micromol/L measured after 48 hrs by MTT assay relative to control; assay type: cell-based; conditions: dose 0.1-100 µmol/L
HeLa [9] = assay: Antiproliferative activity against human HeLa cells assessed as cell growth inhibition at 0.1 to 100 micromol/L measured after 24 hrs by MTT assay relative to control; assay type: cell-based; conditions: dose 0.1-100 µmol/L
HeLa [10] = assay: Antiproliferative activity against human HeLa cells assessed as cell growth inhibition at 0.1 to 100 micromol/L measured after 48 hrs by MTT assay relative to control; assay type: functional, cell-based; conditions: dose 0.1-100 µmol/L
HeLa [11] = assay: Induction of apoptosis in human HeLa cells assessed as early apoptotic cells at 30 uM incubated for 24 hrs by Annexin V/PI double staining base flow cytometry analysis (reference value: 2.59 %); assay type: functional
HeLa [12] = assay: Induction of apoptosis in human HeLa cells assessed as late apoptotic cells at 30 uM incubated for 24 hrs by Annexin V/PI double staining base flow cytometry analysis (reference value: 12.5 %); assay type: functional
HeLa [13] = assay: Induction of apoptosis in human HeLa cells assessed as necrotic cells at 30 uM incubated for 24 hrs by Annexin V/PI double staining base flow cytometry analysis (reference value: 2.65 %); assay type: functional
HeLa [14] = assay: Induction of apoptosis in human HeLa cells assessed as viable cells at 30 uM incubated for 24 hrs by Annexin V/PI double staining base flow cytometry analysis (reference value: 82.3 %); assay type: functional; conditions: read-out: Activity
HeLa [15] = assay: Induction of apoptosis in human HeLa cells assessed as early apoptotic cells at 30 uM incubated for 48 hrs by Annexin V/PI double staining base flow cytometry analysis (reference value: 2.59 %); assay type: functional
HeLa [16] = assay: Induction of apoptosis in human HeLa cells assessed as late apoptotic cells at 30 uM incubated for 48 hrs by Annexin V/PI double staining base flow cytometry analysis (reference value: 12.5 %); assay type: functional
HeLa [17] = assay: Induction of apoptosis in human HeLa cells assessed as necrotic cells at 30 uM incubated for 48 hrs by Annexin V/PI double staining base flow cytometry analysis (reference value: 2.65 %); assay type: functional
HeLa [18] = assay: Induction of apoptosis in human HeLa cells assessed as viable cells at 30 uM incubated for 48 hrs by Annexin V/PI double staining base flow cytometry analysis (reference value: 82.3 %); assay type: functional; conditions: read-out: Activity
[19] = Prodrug activation in human HeLa cells assessed as increase in fluorescence at 10 uM within 6 hrs by confocal laser scanning microscopic method; assay type: cell-based
[20] = Prodrug activation in human HeLa cells assessed as increase in fluorescence at 10 uM within 6 hrs in the presence of N-ethylmalemide by confocal laser scanning microscopic method; assay type: cell-based
[21] = Drug uptake in tumor of BALB/c nude mouse xenografted with human HeLa cells 10 uM, iv measured after 24 hrs by fluorescence imaging based IVIS optical imaging analysis; assay type: ADME, organism-based, Neoplasm; conditions: in vivo
[22] = Drug uptake in tumor of BALB/c nude mouse xenografted with human HeLa cells 10 uM, iv measured after 6 to 36 hrs by fluorescence imaging based IVIS optical imaging analysis; assay type: ADME, organism-based, Neoplasm; conditions: in vivo, time 6-36 hrs
HeLa [23] = assay: Antitumor activity against human HeLa cells xenografted in BALB/c nude mouse assessed as reduction in tumor volume at 5 mg/kg, iv administered every 3 days for 15 days; assay type: functional, organism-based; conditions: time 15.0 day
[24] = Toxicity in human HeLa cells xenografted in BALB/c nude mouse assessed as change in body weight at 5 mg/kg, iv administered every 3 days for 15 days; assay type: organism-based; conditions: in vivo, 360 h, time 15 day
[25] = Toxicity in human HeLa cells xenografted in BALB/c nude mouse assessed as histological changes in liver at 5 mg/kg, iv administered every 3 days for 15 days by H and E staining based microscopic analysis; assay type: organism-based; conditions: in vivo, 360 h, time 15 day
[26] = Toxicity in BALB/c nude mouse xenografted with human HeLa cells assessed as histological changes in spleen at 5 mg/kg, iv administered every 3 days for 15 days by H and E staining based microscopic analysis; assay type: organism-based; conditions: in vivo, 360 h, time 15 day
[27] = Toxicity in BALB/c nude mouse xenografted with human HeLa cells assessed as histological changes in kidney at 5 mg/kg, iv administered every 3 days for 15 days by H and E staining based microscopic analysis; assay type: organism-based; conditions: in vivo, 360 h, time 15 day
[28] = Toxicity in human HeLa cells xenografted in BALB/c nude assessed as histological changes in heart at 5 mg/kg, iv administered every 3 days for 15 days by H and E staining based microscopic analysis; assay type: organism-based; conditions: in vivo, 360 h, time 15 day
[29] = Toxicity in human HeLa cells xenografted in BALB/c nude assessed as histological changes in tumor at 5 mg/kg, iv administered every 3 days for 15 days by H and E staining based microscopic analysis; assay type: organism-based; conditions: in vivo, 360 h, time 15 day
[30] = GSH-mediated prodrug activation assessed as increase in fluorescence intensity at 10 uM by UV-vis absorption spectroscopy
[31] = GSH-mediated prodrug activation assessed as increase in fluorescence intensity at 10 uM measured at 525 nm emission in presence of 0 to 500 uM of GSH by UV-vis absorption spectroscopy

COc1ccc(OC(=O)CCCSSCCCC(=O)O[C@@H](C(=O)O[C@H]2C[C@@]3(O)[C@@H](OC(=O)c4ccccc4)[C@@H]4[C@]5(OC(C)=O)CO[C@@H]5C[C@H](O)[C@@]4(C)C(=O)[C@H](OC(C)=O)C(=C2C)C3(C)C)[C@@H](NC(=O)c2ccccc2)c2ccccc2)c(-c2nc3ccccc3s2)c1
Drug metabolism [1]: Metabolite_Detected | Drug metabolism [2]: Metabolite_Detected | Activity (HepG2 [3]): Active | Activity (HepG2 [4]): Active | Activity (MCF7 [5]): Active | Activity (MCF7 [6]): Active | Activity (HEK-293T [7]): Active | Activity (HEK-293T [8]): Toxic | Activity (HeLa [9]): Toxic | Activity (HeLa [10]): Active | Activity (HeLa [11]): 6.79% | Activity (HeLa [12]): 28.7% | Activity (HeLa [13]): 3.59% | viability at 30 µM (HeLa [14]): 60.9% | Activity (HeLa [15]): 14.4% | Activity (HeLa [16]): 72.4% | Activity (HeLa [17]): 4.86% | viability at 30 µM (HeLa [18]): 8.39% | Drug metabolism [19]: Metabolite_Detected | Drug metabolism [20]: Metabolite_Detected | Drug uptake [21]: Active | Drug uptake [22]: Active | Activity (HeLa [23]): Active | Activity [24]: Non-Toxic | Activity [25]: Non-Toxic | Activity [26]: Non-Toxic | Activity [27]: Non-Toxic | Activity [28]: Non-Toxic | Activity [29]: Non-Toxic | Drug metabolism [30]: Metabolite_Detected | Drug metabolism [31]: Metabolite_Detected

CC(=O)O[C@H]1C(=O)[C@@]2(C)[C@H]([C@H](OC(=O)c3ccccc3)[C@]3(O)C[C@H](OC(=O)[C@H](O)[C@@H](NC(=O)c4ccccc4)c4ccccc4)C(C)=C1C3(C)C)[C@]1(OC(C)=O)CO[C@@H]1C[C@@H]2O [PACLITAXEL]
Activity (HeLa [11]): 10.6% | Activity (HeLa [12]): 34.7% | Activity (HeLa [13]): 2.24% | viability at 30 µM (HeLa [14]): 52.4% | Activity (HeLa [15]): 4.55% | Activity (HeLa [16]): 66.6% | Activity (HeLa [17]): 2.12% | viability at 30 µM (HeLa [18]): 26.7% | Activity (HeLa [23]): Active | Activity [24]: Non-Toxic
